Test results published in patent US20210070748A1, “INHIBITORS OF BRUTONS TYROSINE KINASE” (Pharmacyclics LLC, priority 2015, published 2021).
Like-named read-outs stand apart in the source and are kept apart here.

Key:
Type in all cases: biochemical
BTK-WT = biological target: T1, BTK-WT (Homo sapiens, UniProt Q06187); assay: Btk in vitro inhibitory activity (one of Method A TR-FRET, Method B electrophoretic mobility shift, Method C radiometric filter binding); conditions: read-out: IC50 BTK-WT
T1 construct: purified from insect cells as a full-length construct containing an N-terminal 6X-His tag; His6 (N); made in house; host or cells: insect cells (baculovirus Sf21 in Method B)
T1 sequence (Q06187 whole entry): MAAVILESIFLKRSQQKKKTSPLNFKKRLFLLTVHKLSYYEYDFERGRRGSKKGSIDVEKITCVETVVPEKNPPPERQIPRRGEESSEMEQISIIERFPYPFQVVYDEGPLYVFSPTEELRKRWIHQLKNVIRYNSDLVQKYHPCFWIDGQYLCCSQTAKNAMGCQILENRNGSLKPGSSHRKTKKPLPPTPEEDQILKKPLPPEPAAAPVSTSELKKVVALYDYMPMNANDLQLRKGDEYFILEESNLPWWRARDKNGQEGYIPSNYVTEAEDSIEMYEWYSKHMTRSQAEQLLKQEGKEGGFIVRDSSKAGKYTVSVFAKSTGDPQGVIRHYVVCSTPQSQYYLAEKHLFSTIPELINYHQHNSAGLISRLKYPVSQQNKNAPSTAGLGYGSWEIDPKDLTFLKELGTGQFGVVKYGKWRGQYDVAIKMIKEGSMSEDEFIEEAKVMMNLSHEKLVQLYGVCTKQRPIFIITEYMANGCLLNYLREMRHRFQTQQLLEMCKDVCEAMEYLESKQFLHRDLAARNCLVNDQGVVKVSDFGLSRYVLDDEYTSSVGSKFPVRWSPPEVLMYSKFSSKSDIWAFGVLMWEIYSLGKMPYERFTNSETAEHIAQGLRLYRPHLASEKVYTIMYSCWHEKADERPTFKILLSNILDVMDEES

ITK = biological target: T2, ITK (Homo sapiens, UniProt Q08881); assay: Inhibition of a panel of kinases, in vitro HotSpot kinase assay: ITK
T2 sequence (Q08881 1-620): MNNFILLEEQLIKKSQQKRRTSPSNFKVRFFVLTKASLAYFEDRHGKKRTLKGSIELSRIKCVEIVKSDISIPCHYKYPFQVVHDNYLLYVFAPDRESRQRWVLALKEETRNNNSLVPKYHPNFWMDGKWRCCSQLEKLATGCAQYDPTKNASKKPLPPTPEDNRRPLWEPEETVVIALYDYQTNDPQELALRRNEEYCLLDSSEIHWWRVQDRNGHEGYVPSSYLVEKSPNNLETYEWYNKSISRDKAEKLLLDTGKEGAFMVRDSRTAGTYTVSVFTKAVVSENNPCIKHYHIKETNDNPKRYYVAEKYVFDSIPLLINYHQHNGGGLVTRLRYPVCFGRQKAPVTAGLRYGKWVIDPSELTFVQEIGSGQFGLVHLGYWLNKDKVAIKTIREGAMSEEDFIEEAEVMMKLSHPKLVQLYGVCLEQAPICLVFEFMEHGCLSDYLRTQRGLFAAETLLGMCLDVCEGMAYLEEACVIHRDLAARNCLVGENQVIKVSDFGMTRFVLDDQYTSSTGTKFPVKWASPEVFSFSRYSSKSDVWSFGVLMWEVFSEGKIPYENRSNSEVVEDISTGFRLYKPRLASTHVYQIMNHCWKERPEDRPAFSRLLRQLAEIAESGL
Procedure: (§1) The degree of inhibition of a panel of kinases is determined using the in vitro HotSpot kinase assay (purified enzymes, ^33P-ATP, an appropriate substrate and 1 μM ATP).

TEC = biological target: T3, TEC (Homo sapiens, UniProt P42680); assay: Inhibition of a panel of kinases, in vitro HotSpot kinase assay: TEC
T3 sequence (P42680 1-631): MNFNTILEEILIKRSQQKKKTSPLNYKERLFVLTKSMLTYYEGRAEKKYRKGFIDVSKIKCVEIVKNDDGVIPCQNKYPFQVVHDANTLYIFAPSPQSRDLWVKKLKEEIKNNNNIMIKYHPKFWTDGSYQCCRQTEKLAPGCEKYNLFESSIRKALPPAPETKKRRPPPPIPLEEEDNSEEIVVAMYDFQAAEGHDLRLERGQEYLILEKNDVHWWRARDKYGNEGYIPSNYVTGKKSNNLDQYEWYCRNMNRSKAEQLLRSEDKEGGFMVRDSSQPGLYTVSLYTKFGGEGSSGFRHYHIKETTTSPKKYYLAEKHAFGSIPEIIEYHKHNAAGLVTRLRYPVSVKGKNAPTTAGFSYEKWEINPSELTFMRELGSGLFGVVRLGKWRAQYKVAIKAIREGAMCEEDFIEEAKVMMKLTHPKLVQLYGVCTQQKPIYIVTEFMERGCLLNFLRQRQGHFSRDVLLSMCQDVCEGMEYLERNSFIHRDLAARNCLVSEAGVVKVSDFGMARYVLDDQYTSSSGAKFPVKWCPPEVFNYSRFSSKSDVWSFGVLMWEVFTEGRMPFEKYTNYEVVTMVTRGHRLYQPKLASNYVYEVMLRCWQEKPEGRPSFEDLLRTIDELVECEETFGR
Procedure: as §1

TXK = biological target: T4, TXK (Homo sapiens, UniProt P42681); assay: Inhibition of a panel of kinases, in vitro HotSpot kinase assay: TXK; conditions: Table 15, C compounds; 1 μM ATP
T4 sequence (P42681 1-527): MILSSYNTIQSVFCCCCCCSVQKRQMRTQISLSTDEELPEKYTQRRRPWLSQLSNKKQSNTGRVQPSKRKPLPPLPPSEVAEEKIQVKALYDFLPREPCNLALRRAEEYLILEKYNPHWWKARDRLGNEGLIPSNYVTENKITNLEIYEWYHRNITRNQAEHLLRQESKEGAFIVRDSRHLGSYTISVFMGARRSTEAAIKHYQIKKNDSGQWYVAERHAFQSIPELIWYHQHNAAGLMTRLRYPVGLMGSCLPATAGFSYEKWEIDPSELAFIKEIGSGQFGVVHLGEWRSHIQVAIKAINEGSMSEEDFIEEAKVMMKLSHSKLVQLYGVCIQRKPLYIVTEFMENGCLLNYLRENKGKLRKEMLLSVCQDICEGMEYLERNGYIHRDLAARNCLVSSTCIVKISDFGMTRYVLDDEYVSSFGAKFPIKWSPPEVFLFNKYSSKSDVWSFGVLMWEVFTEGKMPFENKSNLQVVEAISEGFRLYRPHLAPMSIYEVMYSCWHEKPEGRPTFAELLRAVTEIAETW
Procedure: as §1

LCK = LCK (Homo sapiens, UniProt P06239); assay: Inhibition of a panel of kinases, in vitro HotSpot kinase assay: LCK; conditions: read-out: IC50 LCK
Sequence of LCK (P06239 whole entry): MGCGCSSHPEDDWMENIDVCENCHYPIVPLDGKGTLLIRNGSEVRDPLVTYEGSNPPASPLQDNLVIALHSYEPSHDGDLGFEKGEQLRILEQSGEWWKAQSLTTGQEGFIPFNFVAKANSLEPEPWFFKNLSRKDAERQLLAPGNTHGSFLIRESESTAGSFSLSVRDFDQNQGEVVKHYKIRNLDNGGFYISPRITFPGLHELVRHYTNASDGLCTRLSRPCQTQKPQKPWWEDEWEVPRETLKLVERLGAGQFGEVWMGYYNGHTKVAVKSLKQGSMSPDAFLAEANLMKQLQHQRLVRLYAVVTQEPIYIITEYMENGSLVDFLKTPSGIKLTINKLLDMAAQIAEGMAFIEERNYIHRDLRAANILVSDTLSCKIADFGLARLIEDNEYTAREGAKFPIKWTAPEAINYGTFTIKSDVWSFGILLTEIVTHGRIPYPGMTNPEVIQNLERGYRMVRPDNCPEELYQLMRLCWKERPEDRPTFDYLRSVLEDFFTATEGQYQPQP

EGFR = EGFR (Homo sapiens, UniProt P00533); assay: Inhibition of a panel of kinases, in vitro HotSpot kinase assay: EGFR
Sequence of EGFR (P00533 25-1210): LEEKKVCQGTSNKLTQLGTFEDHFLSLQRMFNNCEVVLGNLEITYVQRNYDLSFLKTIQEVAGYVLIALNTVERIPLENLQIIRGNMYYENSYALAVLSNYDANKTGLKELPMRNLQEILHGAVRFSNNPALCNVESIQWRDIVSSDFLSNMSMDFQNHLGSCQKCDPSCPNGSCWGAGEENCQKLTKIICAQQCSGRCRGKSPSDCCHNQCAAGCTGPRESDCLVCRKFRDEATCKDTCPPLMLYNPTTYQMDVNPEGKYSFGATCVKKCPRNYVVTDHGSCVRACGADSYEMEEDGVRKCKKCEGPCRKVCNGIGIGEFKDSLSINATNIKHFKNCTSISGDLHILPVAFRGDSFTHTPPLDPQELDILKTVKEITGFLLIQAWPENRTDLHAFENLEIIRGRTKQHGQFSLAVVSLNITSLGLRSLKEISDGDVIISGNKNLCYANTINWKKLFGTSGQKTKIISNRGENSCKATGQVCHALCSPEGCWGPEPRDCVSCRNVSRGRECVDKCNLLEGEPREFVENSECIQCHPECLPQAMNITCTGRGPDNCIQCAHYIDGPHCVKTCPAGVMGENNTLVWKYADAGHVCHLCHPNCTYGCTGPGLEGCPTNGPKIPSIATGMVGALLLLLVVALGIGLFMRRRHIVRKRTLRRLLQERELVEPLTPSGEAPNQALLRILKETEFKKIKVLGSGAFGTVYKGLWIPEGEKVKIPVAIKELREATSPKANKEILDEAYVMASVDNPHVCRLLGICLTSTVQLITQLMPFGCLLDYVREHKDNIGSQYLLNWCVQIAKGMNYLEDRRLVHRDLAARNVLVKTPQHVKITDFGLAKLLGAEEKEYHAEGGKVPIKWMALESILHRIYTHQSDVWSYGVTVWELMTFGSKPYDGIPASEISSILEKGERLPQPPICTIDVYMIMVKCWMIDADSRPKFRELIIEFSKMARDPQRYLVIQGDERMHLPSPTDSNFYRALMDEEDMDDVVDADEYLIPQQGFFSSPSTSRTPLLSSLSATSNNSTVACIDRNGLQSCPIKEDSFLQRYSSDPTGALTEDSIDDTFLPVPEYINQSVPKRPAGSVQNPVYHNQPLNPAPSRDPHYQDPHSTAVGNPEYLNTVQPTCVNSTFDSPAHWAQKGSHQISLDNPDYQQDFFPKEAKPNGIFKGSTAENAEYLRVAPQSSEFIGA
Procedure: as §1

SRC = SRC (Homo sapiens, UniProt P12931); assay: Inhibition of a panel of kinases, in vitro HotSpot kinase assay: SRC; conditions: D-compounds panel data; 1 μM ATP
Sequence of SRC (P12931 whole entry): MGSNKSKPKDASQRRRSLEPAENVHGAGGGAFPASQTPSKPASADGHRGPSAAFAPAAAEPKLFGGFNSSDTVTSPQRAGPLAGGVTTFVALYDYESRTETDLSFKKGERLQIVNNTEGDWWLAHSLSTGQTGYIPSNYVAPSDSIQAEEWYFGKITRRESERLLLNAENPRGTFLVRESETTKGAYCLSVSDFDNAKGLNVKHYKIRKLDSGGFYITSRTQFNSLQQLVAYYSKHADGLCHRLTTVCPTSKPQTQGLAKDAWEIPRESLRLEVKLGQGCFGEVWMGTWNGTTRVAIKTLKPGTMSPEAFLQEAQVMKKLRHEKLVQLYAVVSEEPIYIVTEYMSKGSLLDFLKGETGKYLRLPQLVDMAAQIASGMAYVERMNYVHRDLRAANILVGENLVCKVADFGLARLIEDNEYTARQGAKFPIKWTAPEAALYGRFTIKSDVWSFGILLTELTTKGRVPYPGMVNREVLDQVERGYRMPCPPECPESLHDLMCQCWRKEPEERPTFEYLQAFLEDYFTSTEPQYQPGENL
Procedure: as §1

[1] = Table 15, C compounds, 1 μM ATP
[2] = D-compounds panel data, 1 μM ATP

Row | IC50 (BTK-WT; Table 15, C compounds) [nM] | IC50 (ITK; [1]) [nM] | IC50 (TEC; [1]) [nM] | IC50 (TXK) [nM] | Compound | also measured
1 | ≤ 10 | 10 to 100 | ≤ 10 | ≤ 10 | C=CC(=O)N1CCC[C@@H](Nc2nnc(C(N)=O)c(Nc3ccc(-c4ncccn4)cc3)n2)C1 [Example C-52, (R)-3-(1-acryloylpiperidin-3-ylamino)-5-(4-(pyrimidin-2-yl)phenylamino)-1,2,4-triazine-6-carboxamide] | –
2 | ≤ 10 | 10 to 100 | ≤ 10 | ≤ 10 | C=CC(=O)N1CCC[C@@H](Nc2nnc(C(N)=O)c(Nc3ccc(C)cc3)n2)C1 [Example C-54, (R)-3-(1-acryloylpiperidin-3-ylamino)-5-(p-tolylamino)-1,2,4-triazine-6-carboxamide] | –
3 | ≤ 10 | ≤ 10 | ≤ 10 | ≤ 10 | C=CC(=O)N1CCC[C@@H](Nc2nnc(C(N)=O)c(Nc3ccc(C4CCN(C5CCCC5)CC4)cc3)n2)C1 [Example C-60, (R)-3-(1-acryloylpiperidin-3-ylamino)-5-(4-(1-cyclopentylpiperidin-4-yl)phenylamino)-1,2,4-triazine-6-carboxamide] | –

Further lines, the molecule ahead of its results:

Row | Compound | IC50 (BTK-WT; Table 15, C compounds) [nM] | IC50 (ITK; [1]) [nM] | IC50 (TEC; [1]) [nM] | IC50 (TXK) [nM] | also measured
4 | C=CC(=O)N1CCC[C@@H](Nc2nnc(C(N)=O)c(Nc3ccc(C(C)C)c(C)c3)n2)C1 [Example C-53, (R)-3-(1-acryloylpiperidin-3-ylamino)-5-(4-isopropyl-3-methylphenylamino)-1,2,4-triazine-6-carboxamide] | ≤ 10 | 10 to 100 | ≤ 10 | ≤ 10 | –
5 | C=CC(=O)N1CCC[C@@H](Nc2nnc(C(N)=O)c(Nc3ccc(C(C)(C)C#N)cc3)n2)C1 [Example C-61, (R)-3-(1-acryloylpiperidin-3-ylamino)-5-(4-(2-cyanopropan-2-yl)phenylamino)-1,2,4-triazine-6-carboxamide] | ≤ 10 | ≤ 10 | ≤ 10 | ≤ 10 | –
6 | C=CC(=O)N1CCC[C@@H](Nc2nnc(C(N)=O)c(Nc3ccc(I)cc3)n2)C1 [Example C-62, (R)-3-(1-acryloylpiperidin-3-ylamino)-5-(4-iodophenylamino)-1,2,4-triazine-6-carboxamide] | ≤ 10 | 10 to 100 | ≤ 10 | ≤ 10 | –
7 | C=CC(=O)N1CCC[C@@H](Nc2nnc(C(N)=O)c(Nc3ccc4ncsc4c3)n2)C1 [Example C-63, (R)-3-(1-acryloylpiperidin-3-ylamino)-5-(benzo[d]thiazol-6-ylamino)-1,2,4-triazine-6-carboxamide] | ≤ 10 | ≤ 10 | ≤ 10 | ≤ 10 | –
8 | C=CC(=O)N1CCC[C@@H](Nc2nnc(C(N)=O)c(Nc3ccc(Cn4cncn4)cc3)n2)C1 [Example C-64, (R)-5-(4-((1H-1,2,4-triazol-1-yl)methyl)phenyl-amino)-3-(1-acryloylpiperidin-3-ylamino)-1,2,4-triazine-6-carboxamide] | ≤ 10 | ≤ 10 | ≤ 10 | ≤ 10 | –
9 | C=CC(=O)N1CC[C@@H](N(C)c2cnc(C(N)=O)c(Nc3ccc(C4(C)CCN(C5CC5)CC4)cc3)n2)C1 [Example C-65, (R)-5-((1-acryloylpyrrolidin-3-yl)(methyl)amino)-3-(4-(1-cyclopropyl-4-methylpiperidin-4-yl)phenylamino) pyrazine-2-carboxamide] | ≤ 10 | ≤ 10 | ≤ 10 | ≤ 10 | –
10 | C=CC(=O)N1CC[C@@H](N(C)c2cnc(C(N)=O)c(Nc3ccc(C4(C)CCN(C5CCCC5)CC4)cc3)n2)C1 [Example C-67, (R)-5-((1-acryloylpyrrolidin-3-yl)(methyl)amino)-3-(4-(1-cyclopentyl-4-methylpiperidin-4-yl)phenylamino)pyrazine-2-carboxamide] | ≤ 10 | ≤ 10 | ≤ 10 | > 10000 | –
11 | C=CC(=O)N1CCC[C@@H](Nc2nnc(C(N)=O)c(Nc3cncc(F)c3)n2)C1 [Example C-69, (R)-3-(1-acryloylpiperidin-3-ylamino)-5-(5-fluoropyridin-3-ylamino)-1,2,4-triazine-6-carboxamide] | ≤ 10 | 100 to 1000 | ≤ 10 | ≤ 10 | –
12 | C[C@@H]1[C@H](NC(=O)c2ccc(C3CC3)cc2)CCCN1c1cnc(C(N)=O)c(Nc2ccc(N3CCCCC3)cc2)n1 [Example D-37, 5-[(2R,3R)-3-(4-cyclopropylbenzamido)-2-methylpiperidin-1-yl]-3-{[4-(piperidin-1-yl)phenyl]amino}pyrazine-2-carboxamide] | – | – | – | – | IC50 (BTK-WT; D-compounds panel data): 10 to 100 nM; IC50 (LCK; [2]): 100 to 1000 nM; IC50 (ITK; [2]): 1000 to 10000 nM; IC50 (EGFR; [2]): 100 to 1000 nM; IC50 (SRC): 1000 to 10000 nM; IC50 (TEC; [2]): 10 to 100 nM
13 | C=CC(=O)N1CCC[C@@H](Nc2nnc(C(N)=O)c(Nc3ccc(-n4nccn4)cc3)n2)C1 [Example E-67, (R)-5-(4-(2H-1,2,3-triazol-2-yl)phenylamino)-3-(1-acryloylpiperidin-3-ylamino)-1,2,4-triazine-6-carboxamide] | – | – | – | – | IC50 (BTK-WT; E compounds, Table 17): ≤ 10 nM; IC50 (LCK; E compounds, Table 17): 100 to 1000 nM; IC50 (ITK; E compounds, Table 17): 10 to 100 nM; IC50 (EGFR; E compounds, Table 17): 10 to 100 nM; IC50 (TEC; E compounds, Table 17): ≤ 10 nM
14 | C=CC(=O)N1CCC[C@@H](Nc2nnc(C(N)=O)c(Nc3ccc4ncccc4c3)n2)C1 [Example E-68, (R)-3-(1-acryloylpiperidin-3-ylamino)-5-(quinolin-6-ylamino)-1,2,4-triazine-6-carboxamide] | – | – | – | – | IC50 (BTK-WT; E compounds, Table 17): ≤ 10 nM; IC50 (LCK; E compounds, Table 17): 100 to 1000 nM; IC50 (ITK; E compounds, Table 17): ≤ 10 nM; IC50 (EGFR; E compounds, Table 17): ≤ 10 nM; IC50 (TEC; E compounds, Table 17): ≤ 10 nM
15 | C=CC(=O)N1CCC[C@@H](Nc2cnc(C(N)=O)c(Nc3ccc(C4CCN(C5CCCC5)CC4)cc3)n2)[C@H]1C [Example E-99, 5-((2R,3R)-1-acryloyl-2-methylpiperidin-3-ylamino)-3-(4-(1-cyclopentylpiperidin-4-yl)phenylamino)pyrazine-2-carboxamide] | – | – | – | – | IC50 (BTK-WT; E compounds, Table 17): ≤ 10 nM; IC50 (LCK; E compounds, Table 17): 10 to 100 nM; IC50 (ITK; E compounds, Table 17): ≤ 10 nM; IC50 (EGFR; E compounds, Table 17): ≤ 10 nM; IC50 (TEC; E compounds, Table 17): ≤ 10 nM
16 | C=CC(=O)N1CCC[C@@H](Nc2cnc(C(N)=O)c(Nc3ccc(C4(C)CCN(C5CCCC5)CC4)cc3)n2)[C@H]1C [Example E-100, 5-((2R,3R)-1-acryloyl-2-methylpiperidin-3-ylamino)-3-(4-(1-cyclopentyl-4-methylpiperidin-4-yl)phenylamino)pyrazine-2-carboxamide] | – | – | – | – | IC50 (BTK-WT; E compounds, Table 17): ≤ 10 nM; IC50 (LCK; E compounds, Table 17): 10 to 100 nM; IC50 (ITK; E compounds, Table 17): ≤ 10 nM; IC50 (EGFR; E compounds, Table 17): ≤ 10 nM; IC50 (TEC; E compounds, Table 17): ≤ 10 nM
